From patent US9447130B1, “Process for the preparation of dicycloplatin” (Syn-Nat Products Enterprise LLC, priority 2015, dated 2016)

How the values were obtained:
[1] = water solubility of dicycloplatin; format: physicochemical; settings: room temperature
Text: (§1) Moreover, in additional polymorph studies of dicycloplatin, it was recognized that the use of shorter aliphatic alcohols (as reported in U.S. Pat. No. 6,699,901) such as methanol, ethanol, isopropanol and butanol led to a significant amount of carboplatin being left in the product because of disproportionation. […] Thus, recrystallization in water was not efficient and was difficult to scale up.

[2] = stability of dicycloplatin to heat / hot water (evaporation, slurry); format: physicochemical
Experimental: • 1) Dissolved 50.0 mg of carboplatin (135 μmol) in 2.8 mL of water in a 3-mL glass vial at RT. • 2) Added 19.4 mg of 1,1-cyclobutane dicarboxylic acid (135 μmol) into the same vial. • 3) Stirred the suspension at RT to obtain a clear solution. • 4) Transferred the clear solution to a 25-mL round-bottom flask and rotary evaporated at a temperature between 50° C. and 55° C. to obtain white crystal solid. • 5) Air-dried the solid to obtain a product.
as §1

[3] = cited from earlier work

For dicycloplatin, the water solubility [1] was 40 mg/mL, the “thermal stability during evaporation” value ([2]; evaporation step of the reported process (U.S. Pat. No. 6,699,901)) was “sensitive to high temperature” and the “stability of a slurry in hot water” value ([2]; slurry in hot water) was “partial hydrolysis”. The “recommended Phase II dosage” value ([3]; DCP-containing chemotherapy) was 450 mg/m^2 and the “bioavailability and stability in vivo” value ([3]; in vivo, Chinese cancer patients) was “favorable”.
